Experimental data reported in patent publication US20260250320A1, “LIPIDATED PEPTIDE INHIBITORS OF INTERLEUKIN-23 RECEPTOR” (Janssen Pharmaceutica NV, priority 2023, published 2026).
*1 amine or outer side, *2 acyl side, *3 side chain or, on linkers, in order; H or OH if unused. Where a SMILES comes first, the peptide text is derived from it. Bridges are numbered along the chain shown (N, C = ends). Side-chain parts run from the residue outwards. [ ]: non-standard residue; d: D form. The star is where a group is joined. PEG12 = NCCOCCOCCOCCOCCOCCOCCOCCOCCOCCOCCOCCOCCC(=O)O; X42 = O=C(O)CCCCCCCCCCCCCCCCC(=O)N[C@H](CO)CCC(=O)*; Trp(7-Me) = Cc1cccc2c(C[C@H](N)C(=O)O)c[nH]c12; C20 diacid = O=C(O)CCCCCCCCCCCCCCCCCCC(=O)*; C18 diacid = O=C(O)CCCCCCCCCCCCCCCCC(=O)*; γGlu = O=C(O)[C@H](CCC(=O)[*:2])N[*:1]; 2Nal = N[C@@H](Cc1ccc2ccccc2c1)C(=O)O; AEF = NCCOc1ccc(C[C@H](N)C(=O)O)cc1; X2 = C[N+](C)(C)C[C@@H](CC(=O)O)N*; 3Pal = N[C@@H](Cc1cccnc1)C(=O)O; Lys(Me) = CNCCCC[C@H](N)C(=O)O; NMeK = CN[C@@H](CCCCN)C(=O)O; Pen = CC(C)(S)[C@H](N)C(=O)O; Suc = O=C(CCC(=O)[*:2])[*:1]; Thp = NC1(C(=O)O)CCOCC1; X1 = C[N+](C)(C)CCCCC*; AEEA = NCCOCCOCC(=O)O; Sar = CNCC(=O)O

molecular target: T1, IL-23R (Homo sapiens, UniProt Q5VWK5); test: IL23R Reporter Assay; format: cell-based; conditions: HEK293 cells containing IL-23R, IL-12Rβ1 and STAT-inducible firefly luciferase reporter; 10 ng/mL IL-23 (EC90); 5 h
T1 construct: HEK293 cells containing IL-23R, IL-12Rβ1 and a firefly luciferase reporter gene driven by a STAT-inducible promoter (Promega); host or cells: HEK293
T1 sequence (Q5VWK5 24-629): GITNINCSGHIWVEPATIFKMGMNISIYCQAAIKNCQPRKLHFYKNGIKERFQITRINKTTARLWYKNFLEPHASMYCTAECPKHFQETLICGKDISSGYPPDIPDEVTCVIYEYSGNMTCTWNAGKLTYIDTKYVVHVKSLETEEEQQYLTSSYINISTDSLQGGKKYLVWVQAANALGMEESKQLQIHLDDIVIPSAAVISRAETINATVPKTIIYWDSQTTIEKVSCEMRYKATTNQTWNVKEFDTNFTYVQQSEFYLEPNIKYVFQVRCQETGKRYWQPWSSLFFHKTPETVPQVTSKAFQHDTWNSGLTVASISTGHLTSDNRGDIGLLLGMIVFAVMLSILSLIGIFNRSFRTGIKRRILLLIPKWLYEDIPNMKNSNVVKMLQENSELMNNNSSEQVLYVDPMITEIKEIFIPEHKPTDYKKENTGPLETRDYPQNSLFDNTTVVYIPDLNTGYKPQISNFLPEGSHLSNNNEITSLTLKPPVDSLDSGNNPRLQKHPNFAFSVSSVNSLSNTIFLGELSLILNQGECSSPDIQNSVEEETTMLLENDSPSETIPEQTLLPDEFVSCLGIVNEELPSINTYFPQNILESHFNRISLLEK
Protocol: Compounds were serially diluted in 100% (v/v) DMSO) and plated using an Echo acoustic dispenser (Labcyte) into 1536-well non-treated black assay plates (Corning #9146). 3 μL of HEK293 cells containing IL-23R, IL-12Rβ1 and a firefly luciferase reporter gene driven by a STAT-inducible promoter (Promega) were added to the plates (4000 cells/well), followed by 3 μL of 10 ng/mL IL-23 (equivalent to EC90 concentration). After 5 h at 37° C., 5% CO2, 95% relative humidity, cells were placed at 20° C. and treated with BioGlo reagent (Promega) according to the Manufacturer's instructions. Luminescence was measured on a Pherastar FSX (BMG LabTech). Data were normalized to IL-23 treatment (0% inhibition) and 30 μM of control inhibitor (100% inhibition), and IC50 values were determined using a 4-parameter Hill equation.

IC50 [nM] | Compound
< 50 | CC(=O)N(C)CCCC[C@@H]1NC(=O)[C@H](Cc2c[nH]c3c(C)cccc23)NC(=O)[C@H]([C@@H](C)O)NC(=O)[C@H](CC(=O)N(C)C)NC(=O)[C@@H](NC(=O)CCOCCOCCOCCOCCOCCOCCOCCOCCOCCOCCOCCOCCNC(=O)CC[C@H](NC(=O)CCCCCCCCCCCCCCCCCCC(=O)O)C(=O)O)C(C)(C)SSC(C)(C)[C@@H](C(=O)N[C@@H](Cc2ccc(OCCCCC[N+](C)(C)C)cc2)C(=O)N[C@@H](Cc2ccc3ccccc3c2)C(=O)NC2(C(=O)N[C@@H](CCCCN(C)C(C)=O)C(=O)N[C@@H](CC(N)=O)C(=O)N[C@@H](Cc3cccnc3)C(=O)N(C)CC(=O)N(C)C)CCOCC2)NC1=O [compound 94, HOC20gEPEG12CO-Pen(3)-N(N(Me)2)-T-7MeW-K(NMeAc)-Pen(3)-TMAPF-2Nal-THP-K(NMeAc)-N-3Pya-Sar-CON(Me)2] ({C20 diacid-γGlu-PEG12}-[Pen]D(NMe2)T[Trp(7-Me)][Lys(Me)](Ac)[Pen]Y(X1)[2Nal][Thp][Lys(Me)](Ac)N[3Pal][Sar]-NMe2; disulfide 1-6)
50 to 500 | CC(=O)NCCCC[C@@H]1NC(=O)[C@H](Cc2c[nH]c3c(C)cccc23)NC(=O)[C@H]([C@@H](C)O)NC(=O)[C@H](CC(N)=O)NC(=O)[C@@H](NC(C)=O)C(C)(C)SSC(C)(C)[C@@H](C(=O)N[C@@H](Cc2ccc(OCCN)cc2)C(=O)N[C@@H](Cc2ccc3ccccc3c2)C(=O)NC2(C(=O)N[C@@H](CCC(=O)O)C(=O)N[C@@H](CC(N)=O)C(=O)N[C@@H](Cc3cccnc3)C(=O)N(C)CC(=O)NCCOCCOCCOCCOCCOCCOCCOCCOCCOCCOCCOCCOCCNC(=O)CC[C@H](NC(=O)CCCCCCCCCCCCCCCCC(=O)O)C(=O)O)CCOCC2)NC1=O [compound 135, MeCO-Pen(3)-N-T-7MeW-K(Ac)-Pen(3)-AEF-2Nal-THP-E-N-3Pya-Sar-CO(PEG12gEC18OH)]

tested on: IL-23-stimulated phosphorylated STAT3 in peripheral blood mononuclear cells (PBMCs); test: PBMC pSTAT3 Assay; format: cell-based; conditions: PBMCs from healthy donors; 30 min preincubation with peptide; IL-23 5 ng/mL for 30 min; phospho-STAT3 by MSD
Protocol: Cryopreserved peripheral blood mononuclear cells (PBMCs) from healthy donors were thawed and washed twice in ImmunoCult-XF T cell expansion medium (XF-TCEM) supplemented with CTL anti-aggregate wash. The cells were counted, resuspended at 2-6×10^5 cells per mL XF-TCEM supplemented with penicillin/streptomycin and 100 ng/mL […] (BioLegend, 579404), and cultured in tissue culture flasks coated with anti-CD3 (eBioscience, 16-0037-85 or BD Pharmingen, 555329) at 37° C. in 5% CO2. On day 4 of culture, PBMCs were collected, washed twice in RPMI-1640 supplemented with 0.1% BSA (RPMI-BSA), and incubated in RPMI-BSA in upright tissue culture flasks for ~4 hours at 37° C. in 5% CO2. Following this 'starvation,' a total of 6×10^4 cells in 30 μL RPMI-BSA was transferred into each well of a 384-well plate pre-spotted with peptide or DMSO. The cells were incubated for 30 minutes prior to the addition of […] at a final concentration of 5 ng/mL. The cells were stimulated with cytokine for 30 minutes at 37° C. in 5% CO2, transferred onto ice for 10 minutes, and lysed. Cell lysates were stored at -80° C. until phosphorylated STAT3 was measured using the phospho-STAT panel kit (Meso Scale Discovery, […]). Results are provided below. • A: IC50<0.5 nM; • B: 0.5 nM≤IC50<5 nM; • C: 5 nM≤IC50; • ND: Not determined

Compound | IC50 [nM]
CC(=O)NCCCC[C@@H]1NC(=O)[C@H](Cc2c[nH]c3c(C)cccc23)NC(=O)[C@H]([C@@H](C)O)NC(=O)[C@H](CC(N)=O)NC(=O)[C@@H](NC(=O)[C@@H](CCCCNC(=O)COCCOCCNC(=O)COCCOCCNC(=O)CC[C@@H](CO)NC(=O)CCCCCCCCCCCCCCCCC(=O)O)NC(C)=O)C(C)(C)SSC(C)(C)[C@@H](C(=O)N[C@@H](Cc2ccc(OCCNC(=O)CCC(=O)N[C@H](CC(=O)O)C[N+](C)(C)C)cc2)C(=O)N[C@@H](Cc2ccc3ccccc3c2)C(=O)NC2(C(=O)N[C@@H](CCC(=O)O)C(=O)N[C@@H](CC(N)=O)C(=O)N[C@@H](Cc3cccnc3)C(=O)N(C)CC(N)=O)CCOCC2)NC1=O [compound 17, MeCO-k(PEG2PEG2gEC18OH)-Pen(3)-N-T-7MeW-K(Ac)-Pen(3)-AEF(d)-2Nal-THP-E-N-3Pya-Sar-CONH2] (Ac-[dK]([AEEA-AEEA-X42])[Pen]NT[Trp(7-Me)]K(Ac)[Pen][AEF]([Suc-X2])[2Nal][Thp]EN[3Pal][Sar]-NH2; disulfide 2-7) | < 0.5
CC(=O)NCCCC[C@@H]1NC(=O)[C@H](Cc2c[nH]c3c(C)cccc23)NC(=O)[C@H]([C@@H](C)O)NC(=O)[C@H](CC(N)=O)NC(=O)[C@@H](NC(=O)[C@@H](CCCNC(=N)N)NC(C)=O)C(C)(C)SSC(C)(C)[C@@H](C(=O)N[C@@H](Cc2ccc(OCCNC(=O)CCC(=O)N[C@H](CC(=O)O)C[N+](C)(C)C)cc2)C(=O)N[C@@H](Cc2ccc3ccccc3c2)C(=O)NC2(C(=O)N[C@@H](CCC(=O)O)C(=O)N[C@@H](CC(N)=O)C(=O)N[C@@H](Cc3cccnc3)C(=O)N(C)[C@@H](CCCCNC(=O)COCCOCCNC(=O)COCCOCCNC(=O)CC[C@H](NC(=O)CCCCCCCCCCCCCCCCC(=O)O)C(=O)O)C(N)=O)CCOCC2)NC1=O [compound 16, MeCO-r-Pen(3)-N-T-7MeW-K(Ac)-Pen(3)-AEF(d)-2Nal-THP-E-N-3Pya-NMeK(PEG2PEG2gEC18OH)-CONH2] (Ac-[dR][Pen]NT[Trp(7-Me)]K(Ac)[Pen][AEF]([Suc-X2])[2Nal][Thp]EN[3Pal][NMeK]([AEEA-AEEA-γGlu-C18 diacid])-NH2; disulfide 2-7) | < 0.5
CC(=O)NCCCC[C@@H]1NC(=O)[C@H](Cc2c[nH]c3c(C)cccc23)NC(=O)[C@H]([C@@H](C)O)NC(=O)[C@H](CC(N)=O)NC(=O)[C@@H](NC(C)=O)C(C)(C)SSC(C)(C)[C@@H](C(=O)N[C@@H](Cc2ccc(OCCCCC[N+](C)(C)C)cc2)C(=O)N[C@@H](Cc2ccc3ccccc3c2)C(=O)NC2(C(=O)N[C@@H](CCCCNC(=O)COCCOCCNC(=O)COCCOCCNC(=O)CC[C@H](NC(=O)CCCCCCCCCCCCCCCCC(=O)O)C(=O)O)C(=O)N[C@@H](N)C(=O)N[C@@H](Cc3ccccn3)C(=O)N(C)CC(N)=O)CCOCC2)NC1=O [compound 86, MeCO-Pen(3)-N-T-7MeW-K(NMecPEG3a)-Pen(3)-AEF-2Nal-THP-K(PEG2PEG2gEC18OH)-N-3Pya-Sar-CONH2] | < 0.5
CC(=O)NCCCC[C@@H]1NC(=O)[C@H](Cc2c[nH]c3c(C)cccc23)NC(=O)[C@H]([C@@H](C)O)NC(=O)[C@H](CC(N)=O)NC(=O)[C@@H](NC(C)=O)C(C)(C)SSC(C)(C)[C@@H](C(=O)N[C@@H](Cc2ccc(OCCCCC[N+](C)(C)C)cc2)C(=O)N[C@@H](Cc2ccc3ccccc3c2)C(=O)NC2(C(=O)N[C@@H](CCCCNC(=O)COCCOCCNC(=O)COCCOCCNC(=O)CC[C@H](NC(=O)CCCCCCCCCCCCCCCCC(=O)O)C(=O)O)C(=O)N[C@@H](CC(N)=O)C(=O)N[C@@H](Cc3ccccn3)C(=O)N(C)CC(N)=O)CCOCC2)NC1=O [compound 85, MeCO-Pen(3)-N-T-7MeW-K(Ac)-Pen(3)-TMAPF-2Nal-THP-K(PEG2PEG2gEC18OH)-N-3Pya-Sar-CONH2] | < 0.5
CC(=O)NCCCC[C@@H]1NC(=O)[C@H](Cc2c[nH]c3c(C)cccc23)NC(=O)[C@H]([C@@H](C)O)NC(=O)[C@H](CCCCNC(=O)COCCOCCNC(=O)COCCOCCNC(=O)CC[C@H](NC(=O)CCCCCCCCCCCCCCCCC(=O)O)C(=O)O)NC(=O)[C@@H](NC(C)=O)C(C)(C)SSC(C)(C)[C@@H](C(=O)N[C@@H](Cc2ccc(OCCN)cc2)C(=O)N[C@@H](Cc2ccc3ccccc3c2)C(=O)NC2(C(=O)N[C@@H](CCCCNC(=O)CCC(=O)N[C@H](CC(=O)O)C[N+](C)(C)C)C(=O)N[C@@H](CC(N)=O)C(=O)N[C@@H](Cc3cccnc3)C(=O)N(C)CC(N)=O)CCOCC2)NC1=O [compound 14, MeCO-Pen(3)-K(PEG2PEG2gEC18OH)-T-7MeW-K(Ac)-Pen(3)-AEF-2Nal-THP-K(d)-N-3Pya-Sar-CONH2] (Ac-[Pen]K([AEEA-AEEA-γGlu-C18 diacid])T[Trp(7-Me)]K(Ac)[Pen][AEF][2Nal][Thp]K([Suc-X2])N[3Pal][Sar]-NH2; disulfide 1-6) | < 0.5
